Assay results reported in patent US9458124B2, “Substituted pyran derivatives” (Wayne State University, priority 2013, dated 2016).

How the values were obtained:
DAT = biological target: T1, DAT (Rattus norvegicus, UniProt P23977); experiment: DAT uptake inhibition, [3H]DA, rat brain; format: biochemical; conditions: number in parentheses within cell
T1 construct: from tissue; host or cells: rat brain

SERT = biological target: T2, SERT (Rattus norvegicus, UniProt P31652); experiment: SERT uptake inhibition, [3H]-5-HT, rat brain; format: biochemical; conditions: number in parentheses within cell
T2 construct: from tissue; host or cells: rat brain
T2 sequence (P31652 whole entry): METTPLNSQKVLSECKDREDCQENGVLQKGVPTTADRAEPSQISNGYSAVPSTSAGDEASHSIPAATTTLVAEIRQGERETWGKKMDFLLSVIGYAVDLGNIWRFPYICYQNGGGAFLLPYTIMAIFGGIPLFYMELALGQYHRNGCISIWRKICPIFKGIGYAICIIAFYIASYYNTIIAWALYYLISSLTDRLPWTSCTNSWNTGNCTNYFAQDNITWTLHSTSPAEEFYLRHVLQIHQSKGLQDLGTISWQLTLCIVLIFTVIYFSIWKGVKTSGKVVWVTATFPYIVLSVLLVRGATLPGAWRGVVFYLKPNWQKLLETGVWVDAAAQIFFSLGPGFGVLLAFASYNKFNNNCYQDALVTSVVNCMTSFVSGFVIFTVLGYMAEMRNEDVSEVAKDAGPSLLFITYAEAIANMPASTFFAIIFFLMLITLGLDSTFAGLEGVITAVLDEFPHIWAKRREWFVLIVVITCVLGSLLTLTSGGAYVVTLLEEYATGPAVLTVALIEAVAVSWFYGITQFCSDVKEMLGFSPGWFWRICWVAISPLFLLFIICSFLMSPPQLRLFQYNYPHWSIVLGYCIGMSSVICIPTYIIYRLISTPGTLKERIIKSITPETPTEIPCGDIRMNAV

NET = biological target: T3, NET (Rattus norvegicus, UniProt Q63380); experiment: NET uptake inhibition, [3H]DA, rat brain; format: biochemical; conditions: number in parentheses within cell
T3 construct: from tissue; host or cells: rat brain
T3 sequence (Q63380 1-617): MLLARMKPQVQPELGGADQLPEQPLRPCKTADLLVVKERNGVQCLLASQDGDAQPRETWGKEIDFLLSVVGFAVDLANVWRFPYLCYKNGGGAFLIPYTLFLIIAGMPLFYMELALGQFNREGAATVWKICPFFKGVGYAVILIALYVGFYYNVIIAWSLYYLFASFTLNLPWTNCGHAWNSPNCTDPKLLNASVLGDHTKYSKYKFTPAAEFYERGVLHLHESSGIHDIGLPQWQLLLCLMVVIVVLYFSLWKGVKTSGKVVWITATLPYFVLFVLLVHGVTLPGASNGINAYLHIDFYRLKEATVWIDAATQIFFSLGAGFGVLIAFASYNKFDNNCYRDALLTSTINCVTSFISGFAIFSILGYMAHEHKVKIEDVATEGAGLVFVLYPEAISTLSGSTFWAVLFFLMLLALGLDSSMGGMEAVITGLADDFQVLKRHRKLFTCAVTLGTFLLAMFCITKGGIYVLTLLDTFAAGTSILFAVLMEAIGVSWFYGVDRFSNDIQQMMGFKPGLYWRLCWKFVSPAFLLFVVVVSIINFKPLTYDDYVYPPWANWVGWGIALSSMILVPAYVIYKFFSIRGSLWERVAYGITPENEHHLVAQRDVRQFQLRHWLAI

rats = experiment: Forced swimming test (animal model of depression), duration of immobility; format: in vivo, rat; conditions: sub-chronic oral administration, P<0.01
Method: Compound D-525 was evaluated in Force Swim test which is a well-known animal model of depression. The test procedure consisted of a pretest and test session separated by 24 h. Drugs or vehicle were administered orally (p.o) by following the timeline as described in the standard protocol. Each rat underwent a 5-min swim session following drug administration, which was videotaped and scored later.
All drugs were prepared freshly on the test days. Compound D-525 and imipramine were dissolved in deionized water. All drugs and vehicles were administered p.o. D-525 was administered at a dose of 12.5 and 25 mg/kg. An individual, blinded to the treatment, scored the videotapes for immobility. Immobility scores were analyzed by one way ANOVA test which indicated significant difference between drug treated animals and vehicle.
FIG. 11 provides a bar chart showing the effect of sub-chronic oral administration of vehicle and D-525 on the duration of immobility in the forced swimming test in rats. […] Asterisks indicate a statistically significant difference toward control group that received saline p.o. **P<0.01. Each treatment group contained four to seven rats.

T1 sequence (P23977 whole entry): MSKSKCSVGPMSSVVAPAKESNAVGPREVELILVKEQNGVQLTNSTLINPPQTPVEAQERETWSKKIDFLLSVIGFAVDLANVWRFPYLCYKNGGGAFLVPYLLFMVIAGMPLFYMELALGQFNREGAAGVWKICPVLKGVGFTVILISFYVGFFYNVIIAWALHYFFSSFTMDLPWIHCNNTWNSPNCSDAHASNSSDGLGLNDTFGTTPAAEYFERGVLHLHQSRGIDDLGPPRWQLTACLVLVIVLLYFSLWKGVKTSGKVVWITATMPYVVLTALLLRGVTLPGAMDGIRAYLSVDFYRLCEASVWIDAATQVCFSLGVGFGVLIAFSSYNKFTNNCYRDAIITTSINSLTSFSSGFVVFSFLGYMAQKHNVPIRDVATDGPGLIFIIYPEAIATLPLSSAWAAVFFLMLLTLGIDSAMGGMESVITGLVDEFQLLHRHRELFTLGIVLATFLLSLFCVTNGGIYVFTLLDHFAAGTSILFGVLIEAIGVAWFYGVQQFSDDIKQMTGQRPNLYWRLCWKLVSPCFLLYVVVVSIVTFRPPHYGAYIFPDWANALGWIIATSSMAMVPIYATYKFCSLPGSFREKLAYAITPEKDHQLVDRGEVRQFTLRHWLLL

Cn1c(=O)oc2cc(CN[C@@H]3CO[C@H](C(c4ccc(F)cc4)c4ccc(F)cc4)C[C@H]3O)ccc21 [6f, D-525, 6-((((3R,4R,6S)-6-(bis(4-fluorophenyl)methyl)-4-hydroxytetrahydro-2H-pyran-3-yl)amino)methyl)-3-methylbenzo[d]oxazol-2(3H)-one]
Ki (DAT): 25.3 ± 6.2 nM | Ki (SERT): 26.9 ± 2.6 nM | Ki (NET): 25.8 ± 7.7 nM | effect on duration of immobility in the forced swimming test vs vehicle (Dunnett's analysis) (rats; 12 mg/kg): statistically significant different compared to vehicle | effect on duration of immobility in the forced swimming test vs vehicle (Dunnett's analysis) (rats; 25 mg/kg): statistically significant different compared to vehicle
